Reference: patent US6328989A, “Use of bicozamycin for the manufacture of a medicament for treating infections with enterohemorrhagic e. coli” (Fujisawa Pharmaceutical Co., Ltd., priority 1997, dated 2001)
Values after ≈ are worked out from the molar mass of the structure shown. Values joined by “and” are separate entries in the source; they are usually repeats but may differ in a detail not shown here. Equal values may be shown once. Read-outs that look alike come from different tables or passages of the source.

Columns and labels:
E. coli O-157:H7 = assay: Minimum inhibitory concentration (MIC) against E. coli O-157:H7 strains by agar dilution method; format: cell-based; conditions: for MIC50 / MIC90: Escherichia coli, 18 h, 20 strains
VT1 [1] = format: cell-based, E. coli O-157:H7; conditions: 3h; for VT1 released: control 0h <2, control 3h 2; for VT1 released, ratio to control at 0h: control 3h ratio 2; for VT1 intracellular, ratio to control at 0h: control 3h ratio 32
VT2 [2] = format: cell-based, E. coli O-157:H7; conditions: 3h; for VT2 released: control 0h <2, control 3h 8; for VT2 intracellular: control 0h <2, control 3h 16; for VT2 released, ratio to control at 0h: control 3h ratio 8; for VT2 intracellular, ratio to control at 0h: control 3h ratio 16
Verotoxins (VT1 and VT2) = format: cell-based, E. coli O-157:H7; conditions: concentration greater than MIC; compared with untreated E. coli
E. coli O-157 [3] = assay: Viable cells in the cecum of mice infected with E. coli O-157; format: in vivo, E. coli FP1962 in DBA/2 mice; conditions: for Number of cells in cecum, individual mouse / Number of cells in cecum, mean: day 6; for Number of cells in cecum, individual mouse: DBA/2 mice; for Number of cells in cecum, mean: control mean 3.4 × 10^7
VT1 [4] = assay: Amount of VT1 in cecum of mice infected with E. coli O-157 (VTEC-RPLA); format: in vivo, E. coli FP1962 in DBA/2 mice; conditions: day 6
VT2 [5] = assay: Amount of VT2 in cecum of mice infected with E. coli O-157 (VTEC-RPLA); format: in vivo, E. coli FP1962 in DBA/2 mice; conditions: day 6
verotoxins = system: verotoxins; set-up: species or system E. coli FP1962 in DBA/2 mice; conditions: mouse, in vivo, po
E. coli O-157 [6] = assay: Death of mice infected with E. coli O-157; format: in vivo, E. coli FP1962 in DBA/2 mice; conditions: 10 mg/kg/dose orally twice a day for 4 days
[7] = 32 mg/kg/dose orally twice a day for 4 days
[8] = 10 mg/kg/dose orally twice a day for 4 days

SMILES | MIC50 (E. coli O-157:H7; aerobic) | MIC90 (E. coli O-157:H7; aerobic) | MIC50 (E. coli O-157:H7; anaerobic) | MIC90 (E. coli O-157:H7; anaerobic) | VT1 released (VT1 [1]; 10 μg/ml) | VT1 released, ratio to control at 0h (VT1 [1]; 10 μg/ml) | VT1 intracellular, ratio to control at 0h (VT1 [1]; 10 μg/ml) | VT2 released (VT2 [2]; 10 μg/ml) | VT2 intracellular (VT2 [2]; 10 μg/ml) | VT2 released, ratio to control at 0h (VT2 [2]; 10 μg/ml) | VT2 intracellular, ratio to control at 0h (VT2 [2]; 10 μg/ml) | production and release of verotoxins (Verotoxins (VT1 and VT2)) | Number of cells in cecum, individual mouse (E. coli O-157 [3]; [7]) | Number of cells in cecum, mean (E. coli O-157 [3]; [7]) | Amount of VT1 in cecum, individual mouse (VT1 [4]; [7]) | Amount of VT2 in cecum, individual mouse (VT2 [5]; [7]) | further results
C=C1CCO[C@]2([C@@H](O)[C@@](C)(O)CO)NC(=O)[C@@]1(O)NC2=O [BCM, Bicozamycin] | 25 µg/mL (≈ 82.7 µM) | 25 µg/mL (≈ 82.7 µM) | 12.5 µg/mL (≈ 41.4 µM) | 25 µg/mL (≈ 82.7 µM) | 8 maximum dilution times | 8 | 16 | 2 maximum dilution times | 4 maximum dilution times | 2 | 4 | increases in production and release of verotoxins were dramatically suppressed | 4.5 × 10^3 cfu/site and 1.0 × 10^2 cfu/site and 8.5 × 10^3 cfu/site and 3.5 × 10^3 cfu/site and 1.0 × 10^5 cfu/site | 2.2 × 10^3 cfu/site | < 2 titer | < 2 titer and 2 titer | MIC distribution: number of strains with MIC 25 μg/ml (E. coli O-157:H7; aerobic, 20 strains tested): 20 strains; MIC distribution: number of strains with MIC 12.5 μg/ml (E. coli O-157:H7; anaerobic, 20 strains tested, MIC 12.5 μg/ml): 15 strains; MIC distribution: number of strains with MIC 25 μg/ml (E. coli O-157:H7; anaerobic, 20 strains tested): 5 strains; VT1 released (VT1 [1]; 25 μg/ml): 8 maximum dilution times; VT1 released, ratio to control at 0h (VT1 [1]; 25 μg/ml): 8; VT1 intracellular, ratio to control at 0h (VT1 [1]; 25 μg/ml): 1; VT1 released (VT1 [1]; 100 μg/ml): 8 maximum dilution times; VT1 released, ratio to control at 0h (VT1 [1]; 100 μg/ml): 8; VT1 intracellular, ratio to control at 0h (VT1 [1]; 100 μg/ml): 1; VT2 released (VT2 [2]; 25 μg/ml): < 2 maximum dilution times; VT2 intracellular (VT2 [2]; 25 μg/ml): < 2 maximum dilution times; VT2 released, ratio to control at 0h (VT2 [2]; 25 μg/ml): 1; VT2 intracellular, ratio to control at 0h (VT2 [2]; 25 μg/ml): 1; VT2 released (VT2 [2]; 100 μg/ml): < 2 maximum dilution times; VT2 intracellular (VT2 [2]; 100 μg/ml): < 2 maximum dilution times; VT2 released, ratio to control at 0h (VT2 [2]; 100 μg/ml): 1; VT2 intracellular, ratio to control at 0h (VT2 [2]; 100 μg/ml): 1; antimicrobial activity against VTEC (E. coli O-157 [3]; infected mice, 32 mg/kg/dose orally): showed an antimicrobial activity against VTEC; production and release of verotoxins (verotoxins): suppressed the production and release of verotoxins
CC1(C)S[C@@H]2[C@H](NC(=O)[C@H](N)c3ccc(O)cc3)C(=O)N2[C@H]1C(=O)O [AMX, Amoxicillin] | 3.13 µg/mL (≈ 8.57 µM) | 6.25 µg/mL (≈ 17.1 µM) | 1.56 µg/mL (≈ 4.27 µM) | 3.13 µg/mL (≈ 8.57 µM) | ≥ 256 maximum dilution times | ≥ 256 | 32 | 8 maximum dilution times | 4 maximum dilution times | 8 | 4 | both production and release of verotoxins increased much more than those with an untreated E. coli | – | – | – | – | MIC distribution: number of strains with MIC 1.56 μg/ml (E. coli O-157:H7): 14 strains; MIC distribution: number of strains with MIC 6.25 μg/ml (E. coli O-157:H7): 2 strains; MIC distribution: number of strains with MIC >100 μg/ml (E. coli O-157:H7; aerobic, 20 strains tested): 1 strains; MIC distribution: number of strains with MIC >100 μg/ml (E. coli O-157:H7; anaerobic, 20 strains tested): 1 strains; VT1 intracellular (VT1 [1]; 10 μg/ml, control 0h 2, control 3h 64): 64 maximum dilution times
CCn1cc(C(=O)O)c(=O)c2cc(F)c(N3CCNCC3)cc21 [NFLX, norfloxacin] | – | – | – | – | – | – | – | – | – | – | – | – | – | – | – | – | Number of cells in cecum, individual mouse (E. coli O-157 [3]; [8]): 6.9 × 10^5 cfu/site; Number of cells in cecum, mean (E. coli O-157 [3]; [8]): 6.9 × 10^5 cfu/site; Amount of VT1 in cecum, individual mouse (VT1 [4]; [8]): 2 titer; Amount of VT2 in cecum, individual mouse (VT2 [5]; [8]): 16 titer; death, individual mouse (E. coli O-157 [6]): died; tested mice that died due to increased verotoxins (E. coli O-157 [6]): Five of 6
CC[C@H]1OC(=O)[C@H](C)[C@@H](O[C@H]2C[C@@](C)(OC)[C@@H](O)[C@H](C)O2)[C@H](C)[C@@H](O[C@@H]2O[C@H](C)C[C@H](N(C)C)[C@H]2O)[C@](C)(OC)C[C@@H](C)C(=O)[C@H](C)[C@@H](O)[C@]1(C)O [CAM, clathromycin] | – | – | – | – | – | – | – | – | – | – | – | – | 2.4 × 10^7 cfu/site and 7.9 × 10^7 cfu/site and 1.0 × 10^8 cfu/site and 1.3 × 10^8 cfu/site and 7.0 × 10^6 cfu/site and 4.1 × 10^8 cfu/site | 6.5 × 10^7 cfu/site | 2 titer and 4 titer | 2 titer and 4 titer and < 2 titer and 8 titer | –
C[C@@H]1O[C@@H]1P(=O)(O)O [FOM, fosfomycin] | – | – | – | – | – | – | – | – | – | – | – | – | 7.1 × 10^5 cfu/site and 3.0 × 10^4 cfu/site and 1.2 × 10^8 cfu/site and 4.6 × 10^7 cfu/site and 9.8 × 10^6 cfu/site and 4.9 × 10^7 cfu/site | 6.2 × 10^6 cfu/site | < 2 titer | < 2 titer and 32 titer and 4 titer and 16 titer | –
